From patent publication US20160022605A1, “METHODS FOR REDUCING MICROSATELLITE INSTABILITY INDUCED BY CHEMOTHERAPY AND METHODS FOR SCREENING ANTIOXIDANTS THAT SUPPRESS DRUG-INDUCED MICROSATELLITE INSTABILITY WHILE ENHANCING THE CYTOTOXICITY OF CHEMOTHERAPEUTIC AGENTS” (priority 2014, published 2016) come the findings set out here.

In data set [1] the test system is HCT116-(CA)13 cells. The following applies: 5 mM GSH. Here is the method: After treatment, HCT116-(CA)13 cells in 96-well glass plates (Corning-Costar®) were fixed with 4% paraformaldehyde and nuclei were stained with 1 μg/ml Hoechst 33258. Fluorescent images of the cells were acquired at 100× magnification by ImageXpress^Micro system (Molecular Devices) and analyzed with MetaXpress® V3.1 software as described previously [Li et al., 2014]. The frequency of frameshift mutations of the (CA)13 microsatellite is expressed as the percentage of the DsRed^+GFP^+Hoechst^+ subpopulation in the GFP^+Hoechst^+ population.

A further data set has as its system HCT116 cells. The data set is described as follows: MTT assay, oxaliplatin co-treatment in MMR-deficient cells. Conditions: MMR-deficient HCT116, 1 μM oxaliplatin with 2-10 μM antioxidant, 3-day co-treatment. On the procedure:
(§1) Cell viability was determined by the MTT assay. Briefly, the optical density of colored formazan converted from MTT by viable cells was determined as previously described [Chang et al., 2002] at 595 nm with an ELISA reader (Thermo Labsystems). Cell viability is expressed as the optical density value of drug-treated cells relative to that of solvent-treated cells, after subtracting the background from the medium.
For orientation: Tetrazolium dyes change colour on reduction, which living cells bring about.

Data set [2] deals with HCT116-(CA)13 cells. The data set is described as follows: REDOX library screen by high-content microscopy (MSI frequency and cell numbers). The class given is cell-based, human. Conditions: 1 μM oxaliplatin, additional concentrations, 3-day co-treatment, 3-day recovery. Here is the method:
The REDOX library (Cat# BML-2835, ENZO, USA) is composed of 84 compounds that were supplied at 10 mM in DMSO. HCT116-(CA)13 cells were seeded at 1×10^4 cells per well in 96-well glass plates containing 100 μl growth medium. One day after seeding, the cells were co-treated with 1 μM oxaliplatin and an antioxidant at specified concentrations in triplicate for three days, followed by a 3-day recovery in fresh growth medium without the drug and antioxidants.

In a further data set the test system is HCT116+chr3 cells. The data set is described as follows: MTT assay in MMR-proficient cells. Conditions: MMR-proficient HCT116+chr3, 1 μM oxaliplatin with 2-10 μM antioxidant, 3-day co-treatment. Here is the method: as §1

The structures appear in SMILES notation.

`COc1cc(/C=C/C(=O)CC(=O)/C=C/c2ccc(O)c(OC)c2)ccc1O` [curcumin, (1E,6E)-1,7-bis(4-hydroxy-3-methoxyphenyl)hepta-1,6-diene-3,5-dione]: the “suppression of methotrexate-induced MSI” value in the data set on HCT116-(CA)13 cells [1] (25 nM methotrexate with 2.5 mM NAC, 250 μM vitamin C or 1.5 μM curcumin) was “did not affect methotrexate-induced MSI”. The “suppression of CCNU-induced MSI” value in the data set with HCT116-(CA)13 cells [1] (50 μM CCNU with 2.5 mM NAC, 250 μM vitamin C, 1.5 μM curcumin or 150 μM eugenol) is reported as “approximately 55%”. Besides, the “effect on oxaliplatin-mediated cytotoxicity” value with HCT116 cells and with HCT116+chr3 cells was “did not show a significant effect” throughout. For the same compound, the “outcome of secondary screen: oxaliplatin-induced MSI and oxaliplatin-mediated cytotoxicity” value in the data set with HCT116-(CA)13 cells [2] is on record as “most promising antioxidants”.
